From ChEMBL document CHEMBL2401688, “Phosphinic acid-based inhibitors of tubulin polyglutamylases” (Bioorg Med Chem Lett, 2013)
Activity calls are given as the source filed them. No cut-off for these calls is given here.

How the values were obtained:
[1] = molecular target: T1, Tubulin--tyrosine ligase (Homo sapiens) (UniProt Q8NG68); experiment: Inhibition of TTL (unknown origin)
T1 sequence (whole entry): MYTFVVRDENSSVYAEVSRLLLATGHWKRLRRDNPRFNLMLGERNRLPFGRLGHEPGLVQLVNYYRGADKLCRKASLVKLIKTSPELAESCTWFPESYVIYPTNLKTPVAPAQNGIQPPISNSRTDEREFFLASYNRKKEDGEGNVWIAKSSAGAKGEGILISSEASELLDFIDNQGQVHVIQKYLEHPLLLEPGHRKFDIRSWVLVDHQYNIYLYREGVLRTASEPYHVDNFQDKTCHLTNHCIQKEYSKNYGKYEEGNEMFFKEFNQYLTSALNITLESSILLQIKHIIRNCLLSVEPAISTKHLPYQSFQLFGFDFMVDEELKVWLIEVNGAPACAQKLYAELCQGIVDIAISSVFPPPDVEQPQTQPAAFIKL

[2] = molecular target: T2, Tubulin polyglutamylase TTLL7 (Mus musculus) (UniProt A4Q9F0); experiment: (§1) Inhibition of mouse recombinant N-terminal GST-tagged TTLL7-mediated Ac-DATAEEEGEFEEEAEEEVA glutamylation expressed in Escherichia coli Rosetta2 DE3 after 16 hrs by LC-MS analysis
T2 sequence (whole entry): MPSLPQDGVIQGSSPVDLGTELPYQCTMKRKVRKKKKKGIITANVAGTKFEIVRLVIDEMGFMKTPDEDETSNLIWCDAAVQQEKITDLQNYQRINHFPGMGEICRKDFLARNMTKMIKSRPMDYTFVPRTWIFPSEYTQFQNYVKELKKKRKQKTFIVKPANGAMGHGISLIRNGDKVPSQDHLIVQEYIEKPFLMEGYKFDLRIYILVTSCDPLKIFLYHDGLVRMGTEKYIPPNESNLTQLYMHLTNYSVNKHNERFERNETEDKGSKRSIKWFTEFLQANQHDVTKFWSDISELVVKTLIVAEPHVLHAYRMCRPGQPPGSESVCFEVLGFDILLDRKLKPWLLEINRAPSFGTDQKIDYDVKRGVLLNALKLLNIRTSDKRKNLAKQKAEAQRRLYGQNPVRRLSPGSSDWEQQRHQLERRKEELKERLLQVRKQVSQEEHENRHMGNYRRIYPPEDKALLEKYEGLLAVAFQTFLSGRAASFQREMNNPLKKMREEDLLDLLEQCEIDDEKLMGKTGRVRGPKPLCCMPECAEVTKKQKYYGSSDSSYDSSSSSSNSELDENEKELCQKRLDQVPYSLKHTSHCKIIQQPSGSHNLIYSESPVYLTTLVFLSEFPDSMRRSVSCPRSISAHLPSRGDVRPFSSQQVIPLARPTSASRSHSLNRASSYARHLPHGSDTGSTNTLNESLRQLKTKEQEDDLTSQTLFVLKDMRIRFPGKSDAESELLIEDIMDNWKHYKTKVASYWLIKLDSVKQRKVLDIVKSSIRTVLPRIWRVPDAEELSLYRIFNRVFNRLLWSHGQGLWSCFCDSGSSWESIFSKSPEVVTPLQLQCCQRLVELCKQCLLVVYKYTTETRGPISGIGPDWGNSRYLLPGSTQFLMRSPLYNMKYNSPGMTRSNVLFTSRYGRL

[3] = molecular target: T3, Tubulin polyglutamylase TTLL7 (Mus musculus, UniProt A4Q9F0); experiment: as §1
T3 sequence (A4Q9F0 whole entry): T2 sequence (whole entry)

[4] = Inhibition of Escherichia coli MurD ligase

| Structure (SMILES) | inhibition [1] | inhibition [2] | IC50 [3] [nM] | IC50 [4] [nM] |
| --- | --- | --- | --- | --- |
| CC(=O)N[C@@H](CCP(=O)(O)CC(CCC(=O)O)C(=O)O)C(=O)O (mixture of isomers) | inactive | Active |  |  |
| CC(=O)N[C@H]1[C@@H](OP(=O)(O)OP(=O)(O)OC[C@H]2O[C@@H](n3ccc(=O)[nH]c3=O)[C@H](O)[C@@H]2O)O[C@H](CO)[C@@H](O)[C@@H]1O[C@H](C)C(=O)N[C@@H](C)P(=O)(O)CC(CCC(=O)O)C(=O)O (stereo partly drawn) |  |  |  | 1 |
| CCNC(=O)[C@H](CCP(=O)(O)CC(CCC(=O)O)C(=O)O)NC(C)=O (mixture of isomers) | inactive | Active |  |  |

Second part, the compound after the results:

| inhibition [1] | inhibition [2] | IC50 [3] [nM] | IC50 [4] [nM] | Structure (SMILES) |
| --- | --- | --- | --- | --- |
| inactive |  | 150000 |  | CC(=O)NC(CCC(=O)O)P(=O)(O)CC(CCC(=O)O)C(=O)O (mixture of isomers) |
|  |  |  | 700 | CC(NC(=O)CCCCCOP(=O)(O)OP(=O)(O)OC[C@H]1O[C@@H](n2ccc(=O)[nH]c2=O)[C@H](O)[C@@H]1O)P(=O)(O)CC(CCC(=O)O)C(=O)O (stereo partly drawn) |
